Common to all, as to experiment: Kinase selectivity, scanMAX Kinase assay panel (DiscoverX), % control at 1 uM
What all share (type): binding

Assay [1] deals with T1, scanMAX Kinase assay panel (Homo sapiens, UniProt Q9H2K8).
T1 construct: purchased DiscoverX
T1 sequence (Q9H2K8 1-898): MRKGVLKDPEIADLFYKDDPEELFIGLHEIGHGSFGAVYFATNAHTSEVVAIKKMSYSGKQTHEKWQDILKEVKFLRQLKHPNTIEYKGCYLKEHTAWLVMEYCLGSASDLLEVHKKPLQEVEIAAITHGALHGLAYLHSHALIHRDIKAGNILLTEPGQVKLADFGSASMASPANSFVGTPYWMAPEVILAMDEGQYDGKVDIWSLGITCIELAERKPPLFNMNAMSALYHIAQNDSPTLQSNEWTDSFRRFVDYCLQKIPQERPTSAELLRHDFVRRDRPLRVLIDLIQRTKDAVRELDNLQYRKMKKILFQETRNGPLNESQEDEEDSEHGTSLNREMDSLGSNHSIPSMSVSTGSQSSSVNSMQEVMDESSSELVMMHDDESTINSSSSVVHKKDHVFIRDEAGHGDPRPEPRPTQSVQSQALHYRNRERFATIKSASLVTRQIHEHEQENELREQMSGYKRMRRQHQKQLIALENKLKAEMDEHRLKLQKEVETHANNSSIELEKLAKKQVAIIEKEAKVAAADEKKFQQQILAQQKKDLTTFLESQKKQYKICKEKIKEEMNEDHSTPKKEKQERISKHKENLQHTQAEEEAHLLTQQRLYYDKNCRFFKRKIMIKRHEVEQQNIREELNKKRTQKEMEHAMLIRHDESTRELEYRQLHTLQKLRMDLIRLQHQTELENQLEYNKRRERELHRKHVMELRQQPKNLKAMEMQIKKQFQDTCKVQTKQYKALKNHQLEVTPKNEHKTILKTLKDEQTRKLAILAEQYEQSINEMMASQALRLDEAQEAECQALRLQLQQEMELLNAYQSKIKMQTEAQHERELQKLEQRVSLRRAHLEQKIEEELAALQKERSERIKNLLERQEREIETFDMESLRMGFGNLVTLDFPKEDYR
Particulars: TAOK3; 1 uM; read-out: Percent Control (%). The essentials: (§1)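 Activity was called for kinases showing % control under 35, calculated from compound signal relative to positive and negative controls. Each compound screened at 1 uM against the DiscoverX scanMAX panel.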

In assay [2] the target is T2, scanMAX Kinase assay panel (Homo sapiens, UniProt P04049).
T2 construct: purchased DiscoverX
T2 sequence (P04049 whole entry): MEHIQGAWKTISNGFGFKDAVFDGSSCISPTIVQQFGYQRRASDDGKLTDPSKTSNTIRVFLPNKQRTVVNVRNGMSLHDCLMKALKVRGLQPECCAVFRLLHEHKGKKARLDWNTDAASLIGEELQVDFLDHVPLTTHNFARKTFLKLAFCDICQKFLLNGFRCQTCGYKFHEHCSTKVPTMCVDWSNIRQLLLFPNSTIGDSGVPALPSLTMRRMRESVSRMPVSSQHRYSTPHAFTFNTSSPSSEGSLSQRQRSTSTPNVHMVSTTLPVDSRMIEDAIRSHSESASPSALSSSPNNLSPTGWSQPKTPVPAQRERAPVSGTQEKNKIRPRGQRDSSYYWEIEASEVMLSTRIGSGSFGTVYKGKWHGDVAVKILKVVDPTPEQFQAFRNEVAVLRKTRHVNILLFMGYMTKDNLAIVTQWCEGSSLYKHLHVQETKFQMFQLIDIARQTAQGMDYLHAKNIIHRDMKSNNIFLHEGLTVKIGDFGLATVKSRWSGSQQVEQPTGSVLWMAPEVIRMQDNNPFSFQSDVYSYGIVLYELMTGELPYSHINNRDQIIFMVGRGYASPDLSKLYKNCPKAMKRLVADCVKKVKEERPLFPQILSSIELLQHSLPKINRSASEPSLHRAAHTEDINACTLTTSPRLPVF
Particulars: RAF1; 1 uM; read-out: Percent Control (%). The essentials:
as §1

In assay [3] the target is T3, scanMAX Kinase assay panel (Homo sapiens, UniProt Q13705).
T3 construct: purchased DiscoverX
T3 sequence (Q13705 19-512): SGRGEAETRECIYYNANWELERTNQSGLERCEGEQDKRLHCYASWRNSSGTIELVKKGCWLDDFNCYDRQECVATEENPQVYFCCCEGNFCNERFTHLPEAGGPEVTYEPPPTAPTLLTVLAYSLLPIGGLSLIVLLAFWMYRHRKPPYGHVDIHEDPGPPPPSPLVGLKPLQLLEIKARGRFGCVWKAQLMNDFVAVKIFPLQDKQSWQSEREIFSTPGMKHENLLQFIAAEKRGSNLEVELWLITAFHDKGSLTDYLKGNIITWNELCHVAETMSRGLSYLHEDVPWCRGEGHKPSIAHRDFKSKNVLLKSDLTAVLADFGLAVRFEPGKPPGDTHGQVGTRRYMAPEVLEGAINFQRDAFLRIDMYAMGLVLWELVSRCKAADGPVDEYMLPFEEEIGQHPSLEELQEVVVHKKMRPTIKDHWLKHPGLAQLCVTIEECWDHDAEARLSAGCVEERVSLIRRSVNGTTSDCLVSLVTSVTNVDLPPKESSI
Particulars: ACVR2B; 1 uM; read-out: Percent Control (%). The essentials: as §1

For assay [4], the target named is T4, scanMAX Kinase assay panel (Homo sapiens, UniProt O75385).
T4 construct: purchased DiscoverX
T4 sequence (O75385 1-1050): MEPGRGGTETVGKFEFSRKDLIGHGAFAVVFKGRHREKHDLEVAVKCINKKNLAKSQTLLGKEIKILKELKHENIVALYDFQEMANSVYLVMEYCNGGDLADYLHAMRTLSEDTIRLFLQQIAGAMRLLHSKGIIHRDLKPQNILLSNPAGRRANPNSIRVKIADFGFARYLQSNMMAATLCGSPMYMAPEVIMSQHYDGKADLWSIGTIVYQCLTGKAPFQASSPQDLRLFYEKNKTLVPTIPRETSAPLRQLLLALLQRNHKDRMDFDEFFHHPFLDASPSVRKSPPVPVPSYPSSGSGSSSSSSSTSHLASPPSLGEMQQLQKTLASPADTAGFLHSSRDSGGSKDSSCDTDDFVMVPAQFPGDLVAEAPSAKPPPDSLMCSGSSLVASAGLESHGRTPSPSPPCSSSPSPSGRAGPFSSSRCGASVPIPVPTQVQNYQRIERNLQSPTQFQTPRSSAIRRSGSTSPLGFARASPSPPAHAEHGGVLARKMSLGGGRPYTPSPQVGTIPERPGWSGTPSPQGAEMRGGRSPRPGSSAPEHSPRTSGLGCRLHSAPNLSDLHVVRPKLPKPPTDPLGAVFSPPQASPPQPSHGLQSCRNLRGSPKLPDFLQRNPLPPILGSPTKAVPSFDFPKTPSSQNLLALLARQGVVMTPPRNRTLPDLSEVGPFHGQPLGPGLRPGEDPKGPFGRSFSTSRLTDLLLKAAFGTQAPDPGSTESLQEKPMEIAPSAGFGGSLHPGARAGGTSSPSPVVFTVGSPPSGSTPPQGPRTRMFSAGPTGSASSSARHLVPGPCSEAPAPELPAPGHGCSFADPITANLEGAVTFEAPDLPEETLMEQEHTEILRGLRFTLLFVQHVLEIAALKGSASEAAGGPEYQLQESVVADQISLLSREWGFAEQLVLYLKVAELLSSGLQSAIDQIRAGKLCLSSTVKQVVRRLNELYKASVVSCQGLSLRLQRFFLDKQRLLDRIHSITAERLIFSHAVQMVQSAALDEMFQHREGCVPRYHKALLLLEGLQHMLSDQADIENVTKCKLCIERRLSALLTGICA
Particulars: ULK1; 1 uM; read-out: Percent Control (%). The essentials:
as §1

In the case of `Cc1ccc(C(=O)Nc2ccc(CN3CCN(C)CC3)c(C(F)(F)F)c2)cc1C#Cc1cnc2c(Nc3cnn(C)c3)cccn12` [Example 1, 4-methyl-3-((8-((1-methyl-1H-pyrazol-4-yl)amino)imidazo[1,2-a]pyridin-3-yl)ethynyl)-N-(4-((4-methylpiperazin-1-yl)methyl)-3-(trifluoromethyl)phenyl)benzamide], the remaining binding at 1 µM in assay [1] stood at 1%; in assay [2] it was 11%; in assay [3], 93%; in assay [4], 68%.
The like results for `Cc1ccc(NC(=O)C2(C(=O)Nc3ccc(F)cc3)CC2)cc1C#Cc1cnc2c(Nc3cnn(C(C)C)c3)cccn12` [Example 78] were, in that order, 99%, 100%, 94% and 100%.
The like results for `Cc1cn(-c2cc(NC(=O)c3ccc(C)c(C#Cc4cnc5c(Nc6cnn(C)c6)cccn45)c3)cc(C(F)(F)F)c2)cn1` [Example 12, 4-methyl-N-(3-(4-methyl-1H-imidazol-1-yl)-5-(trifluoromethyl)phenyl)-3-((8-((1-methyl-1H-pyrazol-4-yl)amino)imidazo[1,2-a]pyridin-3-yl)ethynyl)benzamide] were, in that order, 61%, 42%, 96% and 100%.

These data come from US10870647B2, “Imidazopyridine derivative, method for preparing same, and pharmaceutical composition containing same as active ingredient for preventing or treating cancer” (DAEGU-GYEONGBUK MEDICAL INNOVATION FOUNDATION, priority 2016, dated 2020).
